Like-named read-outs stand apart in the source and are kept apart here.
Legend:
[1] = target: T1, Rat Aldose Reductase (AR) (Rattus norvegicus, UniProt P07943); assay: In vitro inhibition of aldose reductase (rat lens supernatant fraction); assay type: biochemical; details: for IC50: ± SEM, n = 3-4, rat lens supernatant, pH 7.5, room temperature; for difference in activity in vitro between A(+) and A(-): Rat AR and Rat L-HDH, conclusion in words
T1 construct: rat lens supernatant fraction; from tissue; host or cells: rat lens, supernatant fraction
From the text: (§1) The in vitro inhibiting activity of racemic 2,7-difluoro-4-methoxyspiro[9H-fluorene-9,4'-imidazolidine]-2',5'-dione, prepared in accordance with U.S. Pat. No. 4,864,028 (hereafter referred to as "A(±)") was compared to that of the R(+) and S(-) enantiomers thereof, prepared in accordance with U.S. Pat. No. 5,151,544 (referred to hereafter as "A(+)" and "A(-)", respectively), with respect to aldose reductase and L-hexonate dehydrogenase.
(§2) The test methods used for measuring in vitro inhibition activities of these compounds toward aldose reductase and L-hexonate dehydrogenase are known. The method utilized for measuring the inhibition of aldose reductase is described in B. W. Griffin and L. G. McNatt, "Characterization of the Reduction of 3-Acetylpyridine Adenine Dinucleotide Phosphate by Benzyl Alcohol Catalyzed by Aldose Reductase", Arch. Biochem, Biophys. 246:75-81 (1986). The method utilized for measuring the inhibition of L-hexonate dehydrogenase is described in M. T. DuPriest, B. W. Griffin, D. Kuzmich, and L. G. McNatt "Spiro[fluoreneisothiazolidin]one Dioxides: New Aldose Reductase and L-Hexonate Dehydrogenase Inhibitors", J. Med Chem. 34:3229-3234 (1991). Both methods are based on detection of the rate of increase of fluorescence of NADPH (reduced form of nicotinamide adenine dinucleotide phosphate) or an analog, formed as a product of the enzymatic reaction, i.e., oxidation of an appropriate alcohol substrate by the respective oxidized pyridine species. In the assay for aldose reductase, the reaction mixture contained 50 mmol/L potassium phosphate buffer (pH 7.5), 12 mmol/L benzyl alcohol, 12 μmol/L oxidized 3-acetylpyridine adenine dinucleotide phosphate, and rat lens supernatant fraction (50-100 μg total protein) in a total volume of 1.0 mL. The assay for L-hexonate dehydrogenase consisted of the following components: 50 mmol/L potassium phosphate buffer (pH 7.5), 20 mmol/L L-gulonate, 25 μmol/L NADP+, and rat kidney supernatant fraction (50-100 µg total protein) in a total volume of 1.0 mL. The enzyme-dependent rate of formation of the reduced pyridine nucleotide was monitored with a fluorescence spectrophotometer set at excitation/emission wavelengths of 365/480 nm for the NADP+analog and 365/465 nm for NADP+; slit widths were routinely set at 10 nm. Reactions were carried out at room temperature; blank rates with one component of the reaction omitted were typically less than 10% of the rate of the complete reaction.
The IC50 values (inhibitor concentration producing 50% inhibition of the reaction under the standard assay conditions described) were computed by linearregression analysis of the linear portion of the dose-response curve for each inhibitor.

[2] = system: sorbitol in three tissues (lens, sciatic nerve and retina); assay: In vivo inhibition of sorbitol in three tissues (lens, sciatic nerve and retina) of severely diabetic rats, dosed orally; details: Rattus norvegicus, 192 h, oral, once a day for eight days, footnote 1: ED60, read-out: ED50, Lens (footnote: for lens, ED60 value is given)
[3] = Plasma pharmacokinetics in rats following a 2 mg/kg intravenous bolus injection; assay type: in vivo, male Sprague-Dawley rats; details: 2 mg/kg i.v. bolus; for AUC(0-inf): linear trapezoidal summation with extrapolation to infinity; for clearance: read-out: CLT (total plasma clearance) (converted); for half-life / k el: 2 mg/kg; for concentration at 1 h / concentration at 4 h / concentration at 8 h / concentration at 24 h / concentration at 31 h / concentration at 48 h / concentration at 72 h / concentration at 96 h / concentration at 120 h / concentration at 144 h / concentration at 168 h / concentration at 216 h: Mean ± SD (N = 3); for concentration at 96 h / concentration at 120 h / concentration at 144 h / concentration at 168 h / concentration at 216 h: ND = Not Detected (lower limit of detection 2 ng/mL)
Protocol: The pharmacokinetic properties of A(±) of Example 1 were compared with those of each enantiomer, A(+) and A(-) of Example 1. The comparison was made in rats following an intravenous bolus injection.
The test articles were formulated in a 0.1N sodium carbonate solution to yield a 2 mg/mL solution. A total of 126 male Sprague-Dawley rats weighing 200-300 g were divided into three groups of 42 rats each. The animals were offered food and water ad libitum except fasting overnight prior to and for four hours after dosing. Rats in each group received a single 2 mg/kg intravenous dose of A(+) or A(-) or A(±) via the tail vein. At the following times postdose, three rats from each group were anesthetized by carbon dioxide inhalation and plasma samples were collected from each animal: 0, 1, 4, 8, 24, 31, 48, 72, 96, 120, 144, 168, 216, and 336 hours. Plasma concentrations of each drug were determined by gas chromatographic-electron capture (GC-EC) methods known to those skilled in the art, with a lower limit of detection of 2 ng/mL. See, e.g., Park, Y. H., et al., Xenobiotica 22:543-550 (1992). The values of the elimination rate constants, α,β and γ, were obtained by linear regression analysis of the log-linear portion of the plasma concentration-time curve. These constants correspond to the initial distribution, disposition and terminal elimination phases, respectively. The α and β values were obtained by the method of residuals. The corresponding half-lives (t1/2α, t1/2β and t1/2γ) were calculated by dividing 0.693 by each respective parameter. The area under the plasma concentration versus time curve from 0 to infinity (AUC..infin.) was calculated by linear trapezoidal summation with extrapolation to infinity. Total plasma clearance CLT was calculated as dose divided by AUC..infin.. The area under the first moment curve (AUMC) is the area under the curve observed for the product of time and concentration, versus time. Apparent volume of distribution at steady state (Vss) was calculated by the product of dose and AUMC, divided by (AUC..infin.)^2.

[4] = target: T2, Rat L-Hexonate Dehydrogenase (L-HDH) (Rattus norvegicus, UniProt P51635); assay: In vitro inhibition of L-hexonate dehydrogenase (rat kidney supernatant fraction); assay type: biochemical; details: ± SEM, n = 2-3, pH 7.5, room temperature
T2 construct: rat kidney supernatant fraction; from tissue; host or cells: rat kidney, supernatant fraction
T2 sequence (P51635 1-325): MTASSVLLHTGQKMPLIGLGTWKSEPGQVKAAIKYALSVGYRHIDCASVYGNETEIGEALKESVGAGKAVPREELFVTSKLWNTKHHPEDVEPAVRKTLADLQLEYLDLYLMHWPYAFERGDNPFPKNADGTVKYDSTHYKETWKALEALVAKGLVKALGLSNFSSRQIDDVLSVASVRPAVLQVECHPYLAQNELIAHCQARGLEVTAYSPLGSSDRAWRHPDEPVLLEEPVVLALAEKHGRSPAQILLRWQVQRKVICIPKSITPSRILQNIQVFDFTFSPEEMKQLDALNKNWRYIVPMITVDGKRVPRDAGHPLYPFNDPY
From the text: as §1
as §2, with “The assay for L-hexonate dehydrogenase consisted of the following components: 50 mmol/L potassium phosphate buffer (pH 7.5), 20 mmol/L L-gulonate, 25 μmol/L NADP+, and rat kidney supernatant fraction (50-100 µg total protein) in a total volume of 1.0 mL.” left out, “Reactions were carried out at room temperature; blank rates with one component of the reaction omitted were typically less than 10% of the rate of the complete reaction.” left out

[5] = system: sorbitol in three tissues (lens, sciatic nerve and retina); assay: In vivo inhibition of sorbitol in three tissues (lens, sciatic nerve and retina) of severely diabetic rats, dosed orally; details: for ED50: Rattus norvegicus, 192 h, once a day for eight days
Protocol: To compare the in vivo efficacy of A(±) (from Example 1) and its enantiomers, A(+) and A(-), the ED50 values (the effective dose, in mg/kg/day, to achieve 50% inhibition) for inhibition of sorbitol in three tissues (lens, sciatic nerve and retina) of severely diabetic rats, dosed orally for eight days, once a day, were recorded.

[6] = rat, plasma, iv, ND = Not Detected, read-out: t1/2γ (terminal elimination phase half-life) (converted)
[7] = rat, plasma, iv, ND = Not Detected, read-out: γ (elimination rate constant, terminal elimination phase) (converted)
[8] = rat, plasma, iv, read-out: t1/2α (initial distribution phase half-life) (converted)
[9] = rat, plasma, iv, read-out: t1/2β (disposition phase half-life) (converted)
[10] = rat, plasma, iv, read-out: α (elimination rate constant, initial distribution phase) (converted)
[11] = rat, plasma, iv, read-out: β (elimination rate constant, disposition phase) (converted)
[12] = retina sorbitol, oral, A(-) value is (est.), read-out: ED50, Retina
[13] = sciatic nerve sorbitol, oral, read-out: ED50, S. Nerve

IC50 [1] | AUMC [3] | AUC(0-inf) ([3]; rat, plasma, iv) | clearance ([3]; rat, plasma, iv) | half-life [3, 8] | half-life [3, 9] | k el [3, 10] | k el [3, 11] | concentration at 1 h ([3]; rat, plasma, iv) | concentration at 4 h ([3]; rat, plasma, iv) | concentration at 8 h ([3]; rat, plasma, iv) | concentration at 24 h ([3]; rat, plasma, iv) | concentration at 31 h ([3]; rat, plasma, iv) | concentration at 48 h ([3]; rat, plasma, iv) | concentration at 72 h ([3]; rat, plasma, iv) | IC50 [4] | SMILES | ED60 [2] | elimination profile (in words) [3] | ED50 [5, 12] | ED50 [5, 13] | other results
5.7 ± 1.7 µM | 854 μg/hour^2/mL | 60400 ng·h/mL | 0.552 mL/min/kg | 5.8 h | 8 h | 3.28e-05 s⁻¹ | 2.36e-05 s⁻¹ | 5080 ± 441 ng/mL | 3590 ± 441 ng/mL | 2420 ± 5440 ng/mL | 352 ± 34 ng/mL | 194 ± 22 ng/mL | 108 ± 27 ng/mL | 3 ± 4 ng/mL | 2.2 ± 0.9 µM | COc1cc(F)cc2c1-c1ccc(F)cc1C21NC(=O)NC1=O (racemic) [A(±), 2,7-difluoro-4-methoxyspiro[9H-fluorene-9,4'-imidazolidine]-2',5'-dione] | 0.28 mg/kg/day | kinetic profile similar to that of A(+) with the presence of a persistent elimination phase | 0.26 mg/kg | 0.12 mg/kg | Vd ([3]; rat, plasma, iv, read-out: Vss (apparent volume of distribution at steady state)): 0.47 L/kg; half-life [3, 6]: 40.7 h; k el [3, 7]: 4.72e-06 s⁻¹; concentration at 96 h ([3]; rat, plasma, iv): 17 ± 4 ng/mL; concentration at 120 h ([3]; rat, plasma, iv): 13 ± 3 ng/mL; concentration at 144 h ([3]; rat, plasma, iv): 11 ± 2 ng/mL; concentration at 168 h ([3]; rat, plasma, iv): 5 ± 2 ng/mL; concentration at 216 h ([3]; rat, plasma, iv): 2 ± 1 ng/mL; activity relative to A(+) ([5]; sorbitol inhibition in vivo, diabetic rats): about 50%
5.5 ± 0.2 µM | 965 μg/hour^2/mL | 54400 ng·h/mL | 0.612 mL/min/kg | 3.1 h | 14.5 h | 6.17e-05 s⁻¹ | 1.33e-05 s⁻¹ | 2970 ± 679 ng/mL | 2360 ± 456 ng/mL | 2360 ± 281 ng/mL | 486 ± 170 ng/mL | 382 ± 49 ng/mL | 162 ± 32 ng/mL | 67 ± 15 ng/mL | 3 ± 0.4 µM | COc1cc(F)cc2c1-c1ccc(F)cc1[C@@]21NC(=O)NC1=O [A(+), 2,7-difluoro-4-methoxyspiro[9H-fluorene-9,4'-imidazolidine]-2',5'-dione] | 0.15 mg/kg/day | triexponential elimination profile with an initial distribution phase, a disposition phase due to metabolism, and a slow terminal elimination phase | 0.15 mg/kg | 0.08 mg/kg | difference in activity in vitro between A(+) and A(-) [1]: no significant difference in activity in vitro; half-life [3, 6]: 37.4 h; k el [3, 7]: 5e-06 s⁻¹; concentration at 96 h ([3]; rat, plasma, iv): 33 ± 11 ng/mL; concentration at 120 h ([3]; rat, plasma, iv): 11 ± 4 ng/mL; concentration at 144 h ([3]; rat, plasma, iv): 9 ± 1 ng/mL; concentration at 168 h ([3]; rat, plasma, iv): 5 ± 3 ng/mL; concentration at 216 h ([3]; rat, plasma, iv): 2 ± 1 ng/mL
5.9 ± 0.3 µM | 402 μg/hour^2/mL | 63000 ng·h/mL | 0.528 mL/min/kg | 4.3 h | 8.5 h | 4.53e-05 s⁻¹ | 2.25e-05 s⁻¹ | 7330 ± 220 ng/mL | 3800 ± 975 ng/mL | 2780 ± 449 ng/mL | 140 ± 17 ng/mL | 127 ± 36 ng/mL | 23 ± 8 ng/mL | 4 ± 3 ng/mL | 3 ± 0.4 µM | COc1cc(F)cc2c1-c1ccc(F)cc1[C@]21NC(=O)NC1=O [A(-), 2,7-difluoro-4-methoxyspiro[9H-fluorene-9,4'-imidazolidine]-2',5'-dione] | 1.52 mg/kg/day | lacks a slow terminal elimination phase | 2 to 3 mg/kg | 1 mg/kg | difference in activity in vitro between A(+) and A(-) [1]: no significant difference in activity in vitro; volume of distribution (in words) ([3]; compared with A(+)): significantly lower volume of distribution; factor by which less active than A(+) ([5]; in all tissues (lens, sciatic nerve, retina)): ≥ 10; maximum inhibition achieved at the highest dose ([5]; lens sorbitol, highest dose (1.5 mg/kg/day), oral, eight days): 40%
